Data as given in patent US7799824B2, “Quaternary salt CCR2 antagonists” (OraPharma, Inc., priority 2004, dated 2010).

Biological target: T1, CCR2 (Homo sapiens, UniProt P41597)
T1 sequence (P41597 1-360 isoform P41597-2): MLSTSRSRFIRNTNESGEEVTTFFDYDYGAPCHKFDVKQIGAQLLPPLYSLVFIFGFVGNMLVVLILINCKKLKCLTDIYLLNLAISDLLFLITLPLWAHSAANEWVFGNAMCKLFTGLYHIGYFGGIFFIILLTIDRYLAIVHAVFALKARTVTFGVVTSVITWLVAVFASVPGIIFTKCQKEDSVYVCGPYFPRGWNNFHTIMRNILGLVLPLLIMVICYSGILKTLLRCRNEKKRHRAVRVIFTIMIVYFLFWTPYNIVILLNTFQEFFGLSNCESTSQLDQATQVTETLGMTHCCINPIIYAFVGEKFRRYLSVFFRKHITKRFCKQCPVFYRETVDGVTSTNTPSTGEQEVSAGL
Assay: MCP-1 Receptor Binding Assay in THP-1 Cells
Details: for IC50: THP-1 cells, 0.5 nM 125I labeled MCP-1, 2 hours at 30° C., read-out: Mean Ligand Binding IC50 (inhibition of MCP-1 binding to CCR2); for inhibition at 25 µM: MCP-1 binding to CCR2, test concentration of 25 μM, unless indicated otherwise, read-out: % Inhibition Ligand Binding
Description: THP-1 cells were obtained from American Type Culture Collection (Manassas, Va., USA). […] The cell density was maintained between 0.5×10^6 cells/mL.
Cells were then harvested onto a filter plate, dried, and 20 μL of Microscint 20 was added to each well. Plates were counted in a TopCount NXT, Microplate Scintillation & Luminescence Counter (Perkin-Elmer Life Sciences, Inc. Boston, Mass.). Blank values (buffer only) were subtracted from all values and drug treated values were compared to vehicle treated values. 1 μM cold MCP-1 was used for nonspecific binding.

Structure (SMILES) | IC50 | inhibition at 25 µM
Cc1cc(Cl)ccc1C(=O)Nc1ccc(C[N+](C)(C)C2CCOCC2)cc1 [Cpd 32, [4-(4-chloro-2-methyl-benzoylamino)-benzyl]-dimethyl-(tetrahydro-pyran-4-yl)-ammonium iodide] | 3.4 µM | 
C[N+](C)(Cc1ccc(NC(=O)c2ccc(Cl)c(C(F)(F)F)c2)cc1)C1CCOCC1 [Cpd 33, [4-(4-chloro-3-trifluoromethyl-benzoylamino)-benzyl]-dimethyl-(tetrahydro-pyran-4-yl)-ammonium iodide] | 0.4 µM | 
C[N+](C)(Cc1cccc(NC(=O)C=Cc2cccc(Br)c2)c1)C1CCOCC1 [Cpd 38, {3-[3-(3-bromo-phenyl)-acryloylamino]-benzyl}-dimethyl-(tetrahydro-pyran-4-yl)-ammonium iodide] | 5 µM | 
C[N+](C)(Cc1ccc(NC(=O)C=Cc2cc(F)cc(F)c2)cc1)C1CCOCC1 [Cpd 42, {4-[3-(3,5-difluoro-phenyl)-acryloylamino]-benzyl}-dimethyl-(tetrahydro-pyran-4-yl)-ammonium iodide] | 5.7 µM | 
C[N+](C)(Cc1ccc(NC(=O)C=Cc2cccc(Br)c2)cc1)C1CCOCC1 [Cpd 43, {4-[3-(3-bromo-phenyl)-acryloylamino]-benzyl}-dimethyl-(tetrahydro-pyran-4-yl)-ammonium iodide] | 0.34 µM | 
C[N+](C)(Cc1ccc(NC(=O)C=Cc2cccc(Cl)c2)cc1)C1CCOCC1 [Cpd 45, {4-[3-(3-chloro-phenyl)-acryloylamino]-benzyl}-dimethyl-(tetrahydro-pyran-4-yl)-ammonium iodide] | 0.26 µM | 
C[N+](C)(Cc1ccc(NC(=O)C=Cc2ccc(Br)cc2)cc1)C1CCOCC1 [Cpd 47, {4-[3-(4-bromo-phenyl)-acryloylamino]-benzyl}-dimethyl-(tetrahydro-pyran-4-yl)-ammonium iodide] | 3.7 µM | 
C[N+]1(Cc2ccc(NC(=O)C=Cc3ccc(Cl)c(Cl)c3)cc2)CCCCC1 [Cpd 53, 1-{4-[3-(3,4-dichloro-phenyl)-acryloylamino]-benzyl}-1-methyl-piperidinium iodide] | 3.2 µM | 
C[N+]1(Cc2ccc(NC(=O)C=Cc3cccc(Br)c3)cc2)CCCCC1 [Cpd 55, 1-{4-[3-(3-bromo-phenyl)-acryloylamino]-benzyl}-1-methyl-piperidinium iodide] | 5.4 µM | 
C[N+]1(Cc2ccc(NC(=O)c3ccc(Cl)c(Cl)c3)cc2)CCOCC1 [Cpd 59, 4-[4-(3,4-dichloro-benzoylamino)-benzyl]-4-methyl-morpholin-4-ium iodide] | 10 µM | 
C[N+]1(Cc2ccc(NC(=O)C=Cc3cccc(Br)c3)cc2)CCOCC1 [Cpd 61, 4-{4-[3-(3-bromo-phenyl)-acryloylamino]-benzyl}-4-methyl-morpholin-4-ium iodide] | 2.7 µM | 
C[N+]1(Cc2ccc(CNC(=O)C=Cc3cccc(C(F)(F)F)c3)cc2)CCOCC1 [Cpd 62, 4-methyl-4-(4-{[3-(3-trifluoromethyl-phenyl)-acryloylamino]-methyl}-benzyl)-morpholin-4-ium iodide] |  | 9%
C=CC[N+](C)(Cc1ccc(NC(=O)C=Cc2cccc(Br)c2)cc1)C1CCSCC1 (centres unmarked) [Cpd 63, allyl-{4-[3-(3-bromo-phenyl)-acryloylamino]-benzyl}-methyl-(tetrahydro-thiopyran-4-yl)-ammonium iodide] | 3.5 µM | 
C[N+](C)(Cc1ccc(CNC(=O)C=Cc2cccc(C(F)(F)F)c2)cc1)C1CCOCC1 [Cpd 64, dimethyl-(tetrahydro-pyran-4-yl)-(4-{[3-(3-trifluoromethyl-phenyl)-acryloylamino]-methyl}-benzyl)-ammonium iodide] |  | 63%
C[N+](C)(Cc1cccc(NC(=O)c2cccc(C(F)(F)F)c2)c1)C1CCOCC1 [Cpd 65, dimethyl-(tetrahydro-pyran-4-yl)-[3-(3-trifluoromethyl-benzoylamino)-benzyl]-ammonium iodide] |  | 61%
Cc1cccc(C=CC(=O)Nc2ccc(C[N+](C)(C)C3CCOCC3)cc2)c1 [Cpd 66, dimethyl-(tetrahydro-pyran-4-yl)-[4-(3-m-tolyl-acryloylamino)-benzyl]-ammonium iodide] | 1.7 µM | 

Other lines, results leading:

IC50 | inhibition at 25 µM | Structure (SMILES)
0.4 µM |  | Cc1ccc(Cl)cc1C(=O)Nc1ccc(C[N+](C)(C)C2CCOCC2)cc1 [Cpd 35, [4-(5-chloro-2-methyl-benzoylamino)-benzyl]-dimethyl-(tetrahydro-pyran-4-yl)-ammonium iodide]
10.2 µM |  | C[N+](C)(CCc1ccc(NC(=O)c2cccc(Br)c2)cc1)C1CCOCC1 [Cpd 37, {2-[4-(3-bromo-benzoylamino)-phenyl]-ethyl}-dimethyl-(tetrahydro-pyran-4-yl)-ammonium iodide]
 | 87% | C[N+](C)(Cc1ccc(NC(=O)C=Cc2ccc(Cl)c(Cl)c2)cc1)C1CCSCC1 [Cpd 41, {4-[3-(3,4-dichloro-phenyl)-acryloylamino]-benzyl}-dimethyl-(tetrahydro-thiopyran-4-yl)-ammonium iodide]
14.6 µM |  | C[N+](C)(Cc1ccc(NC(=O)C=Cc2cccc(Br)c2)cc1)C1CCSCC1 [Cpd 44, {4-[3-(3-bromo-phenyl)-acryloylamino]-benzyl}-dimethyl-(tetrahydro-thiopyran-4-yl)-ammonium iodide]
8.4 µM |  | C[N+]1(Cc2ccc(CNC(=O)C=Cc3ccc(Cl)c(Cl)c3)cc2)CCCCC1 [Cpd 48, 1-(4-{[3-(3,4-dichloro-phenyl)-acryloylamino]-methyl}-benzyl)-1-methyl-piperidinium iodide]
11.9 µM |  | C[N+]1(Cc2ccc(CNC(=O)C=Cc3cccc(Br)c3)cc2)CCCCC1 [Cpd 49, 1-(4-{[3-(3-bromo-phenyl)-acryloylamino]-methyl}-benzyl)-1-methyl-piperidinium iodide]
2.6 µM |  | C[N+]1(Cc2ccc(NC(=O)c3ccc(Cl)c(Cl)c3)cc2)CCCCC1 [Cpd 50, 1-[4-(3,4-dichloro-benzoylamino)-benzyl]-1-methyl-piperidinium iodide]
2.7 µM |  | C[N+]1(Cc2ccc(NC(=O)c3ccc(Cl)c(Cl)c3)cc2)CCCC1 [Cpd 51, 1-[4-(3,4-dichloro-benzoylamino)-benzyl]-1-methyl-pyrrolidinium iodide]
2.6 µM |  | C[N+]1(Cc2cccc(NC(=O)C=Cc3cccc(Br)c3)c2)CCCCC1 [Cpd 52, 1-{3-[3-(3-bromo-phenyl)-acryloylamino]-benzyl}-1-methyl-piperidinium iodide]
11.8 µM |  | C[N+]1(Cc2cccc(NC(=O)c3cccc(C(F)(F)F)c3)c2)CCCCC1 [Cpd 56, 1-methyl-1-[3-(3-trifluoromethyl-benzoylamino)-benzyl]-piperidinium iodide]
13.3 µM |  | C[N+]1(Cc2ccc(NC(=O)C=Cc3cccc(C(F)(F)F)c3)cc2)CCCCC1 [Cpd 57, 1-methyl-1-{4-[3-(3-trifluoromethyl-phenyl)-acryloylamino]-benzyl}-piperidinium iodide]
 | 53% | C[N+]1(Cc2ccc(CNC(=O)C=Cc3ccc(Cl)c(Cl)c3)cc2)CCOCC1 [Cpd 58, 4-(4-{[3-(3,4-dichloro-phenyl)-acryloylamino]-methyl}-benzyl)-4-methyl-morpholin-4-ium iodide]
 | 20% | C[N+]1(Cc2ccc(NC(=O)C=Cc3ccc(Cl)c(Cl)c3)cc2)CCOCC1 [Cpd 60, 4-{4-[3-(3,4-dichloro-phenyl)-acryloylamino]-benzyl}-4-methyl-morpholin-4-ium iodide]
